Tests used:
Format in all cases: in vivo
Conditions in all cases: treatment dosage 320 g/ha
[1] = test system: Indian mallow; test: Test Example 4: weedkilling efficacy by foliar treatment; K: Indian mallow
In short: (§1)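 Seeds are spot-sown into sterilized diluvial soil and covered with about 1.5 cm of soil. After 14 days' greenhouse growth at 25 to 30° C, plants are sprayed on stems and leaves with diluted emulsion at the stated g/ha rate, then scored at 3 weeks.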

[2] = test system: rapeseed; test: Test Example 4: foliar treatment, effect on crop; g: rapeseed
In short: as §1

[3] = test system: redroot pigweed; test: Test Example 3: weedkilling efficacy through soil treatment; L: redroot pigweed
In short: (§2)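 Crop and weed responses were judged three weeks after a uniform surface spray of the water-diluted emulsion at the given g/ha rate. Seeds sat beneath about 1.5 cm of sterilized diluvial soil, and boxes stood in a greenhouse at 25 to 30° C.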

[4] = test system: barnyard grass; test: Test Example 1: weedkilling efficacy, preemergent weed treatment in the submerged state; A: barnyard grass
In short: (§3)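 Pre-emergence application onto floodwater (4 cm, alluvial soil) on the day of sowing, dose expressed as g/ha from diluted emulsion formulation. Weeds sown with 2.5-leaf transplanted rice as crop; plants held at 25–30 °C in greenhouse and scored against assessment criteria after 3 weeks.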

[5] = test system: green foxtail; test: Test Example 3: weedkilling efficacy through soil treatment; E: green foxtail
In short: as §2

[6] = test system: oval-leafed pondweed; test: Test Example 1: weedkilling efficacy, preemergent weed treatment in the submerged state; C: oval-leafed pondweed
In short: as §3

[7] = test system: beet; test: Test Example 3: soil treatment, effect on crop; f: beet
In short: as §2

[8] = test system: black-grass; test: Test Example 3: weedkilling efficacy through soil treatment; H: black-grass
In short: as §2

[9] = test system: rapeseed; test: Test Example 3: soil treatment, effect on crop; g: rapeseed
In short: as §2

[10] = test system: black-grass; test: Test Example 4: weedkilling efficacy by foliar treatment; H: black-grass
In short: as §1

[11] = test system: corn; test: Test Example 3: soil treatment, effect on crop; c: corn
In short: as §2

[12] = test system: barnyard grass; test: Test Example 2: weedkilling efficacy, growth period weed treatment in the submerged state; A: barnyard grass
In short: (§4)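 Weeds treated at the 1-2 leaf stage by application of diluted emulsion onto floodwater (4 cm depth, alluvial soil) at specified g/ha. Grown in greenhouse at 25 to 30° C; herbicidal effect rated three weeks after treatment.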

[13] = test system: fig-leafed goosefoot; test: Test Example 4: weedkilling efficacy by foliar treatment; M: fig-leafed goosefoot
In short: as §1

[14] = test system: birds-eye speedwell; test: Test Example 3: weedkilling efficacy through soil treatment; p: birds-eye speedwell
In short: as §2

[15] = test system: soybean; test: Test Example 3: soil treatment, effect on crop; d: soybean
In short: as §2

[16] = test system: barnyard grass; test: Test Example 3: weedkilling efficacy through soil treatment; F: barnyard grass
In short: as §2

[17] = test system: transplanted rice; test: Test Example 1: preemergent weed treatment in the submerged state, effect on crop; a: transplanted rice
In short: as §3

[18] = test system: catchweed; test: Test Example 3: weedkilling efficacy through soil treatment; O: catchweed
In short: as §2

[19] = test system: crabgrass; test: Test Example 4: weedkilling efficacy by foliar treatment; D: crabgrass
In short: as §1

[20] = test system: corn; test: Test Example 4: foliar treatment, effect on crop; c: corn
In short: as §1

[21] = test system: beet; test: Test Example 4: foliar treatment, effect on crop; f: beet
In short: as §1

[22] = test system: wild oat; test: Test Example 3: weedkilling efficacy through soil treatment; G: wild oat
In short: as §2

[23] = test system: Italian ryegrass; test: Test Example 4: weedkilling efficacy by foliar treatment; I: Italian ryegrass
In short: as §1

[24] = test system: directly sown rice; test: Test Example 3: soil treatment, effect on crop; b: directly sown rice
In short: as §2

[25] = test system: crabgrass; test: Test Example 3: weedkilling efficacy through soil treatment; D: crabgrass
In short: as §2

[26] = test system: soybean; test: Test Example 4: foliar treatment, effect on crop; d: soybean
In short: as §1

[27] = test system: Italian ryegrass; test: Test Example 3: weedkilling efficacy through soil treatment; I: Italian ryegrass
In short: as §2

[28] = test system: oval-leafed pondweed; test: Test Example 2: weedkilling efficacy, growth period weed treatment in the submerged state; C: oval-leafed pondweed
In short: as §4

[29] = test system: wheat; test: Test Example 4: foliar treatment, effect on crop; e: wheat
In short: as §1

[30] = test system: wheat; test: Test Example 3: soil treatment, effect on crop; e: wheat
In short: as §2

[31] = test system: birds-eye speedwell; test: Test Example 4: weedkilling efficacy by foliar treatment; p: birds-eye speedwell
In short: as §1

[32] = test system: directly sown rice; test: Test Example 4: foliar treatment, effect on crop; b: directly sown rice
In short: as §1

[33] = test system: chickweed; test: Test Example 3: weedkilling efficacy through soil treatment; N: chickweed
In short: as §2

[34] = test system: chickweed; test: Test Example 4: weedkilling efficacy by foliar treatment; N: chickweed
In short: as §1

[35] = test system: bulrush; test: Test Example 1: weedkilling efficacy, preemergent weed treatment in the submerged state; B: bulrush
In short: as §3

[36] = test system: redroot pigweed; test: Test Example 4: weedkilling efficacy by foliar treatment; L: redroot pigweed
In short: as §1

[37] = test system: barnyard grass; test: Test Example 4: weedkilling efficacy by foliar treatment; F: barnyard grass
In short: as §1

[38] = test system: common wind-grass; test: Test Example 3: weedkilling efficacy through soil treatment; J: common wind-grass
In short: as §2

[39] = test system: catchweed; test: Test Example 4: weedkilling efficacy by foliar treatment; O: catchweed
In short: as §1

[40] = test system: Indian mallow; test: Test Example 3: weedkilling efficacy through soil treatment; K: Indian mallow
In short: as §2

[41] = test system: wild oat; test: Test Example 4: weedkilling efficacy by foliar treatment; G: wild oat
In short: as §1

[42] = test system: common wind-grass; test: Test Example 4: weedkilling efficacy by foliar treatment; J: common wind-grass
In short: as §1

[43] = test system: bulrush; test: Test Example 2: weedkilling efficacy, growth period weed treatment in the submerged state; B: bulrush
In short: as §4

[44] = test system: green foxtail; test: Test Example 4: weedkilling efficacy by foliar treatment; E: green foxtail
In short: as §1

SMILES: CC1=C(c2ccccc2)C(=O)N(C(C)(C)C(=O)Nc2cc(OC(F)F)ccn2)CO1 [B-2-64]
- K (Indian mallow) weedkilling efficacy grade [1]: 4 (weed kill ratio 70% or more, less than 90%)
- g (rapeseed) effect on crop grade [2]: 4 (weed kill ratio 70% or more, less than 90%)
- L (redroot pigweed) weedkilling efficacy grade [3]: 4 (weed kill ratio 70% or more, less than 90%)
- A (barnyard grass) weedkilling efficacy grade [4]: 5 (weed kill ratio 90% or more, (practically complete withering))
- E (green foxtail) weedkilling efficacy grade [5]: 5 (weed kill ratio 90% or more, (practically complete withering))
- C (oval-leafed pondweed) weedkilling efficacy grade [6]: 5 (weed kill ratio 90% or more, (practically complete withering))
- f (beet) effect on crop grade [7]: 4 (weed kill ratio 70% or more, less than 90%)
- H (black-grass) weedkilling efficacy grade [8]: 5 (weed kill ratio 90% or more, (practically complete withering))
- g (rapeseed) effect on crop grade [9]: 3 (weed kill ratio 40% or more, less than 70%)
- H (black-grass) weedkilling efficacy grade [10]: 5 (weed kill ratio 90% or more, (practically complete withering))
- c (corn) effect on crop grade [11]: 1 (weed kill ratio 5% or more, less than 20%)
- A (barnyard grass) weedkilling efficacy grade [12]: 5 (weed kill ratio 90% or more, (practically complete withering))
- M (fig-leafed goosefoot) weedkilling efficacy grade [13]: 4 (weed kill ratio 70% or more, less than 90%)
- P (birds-eye speedwell) weedkilling efficacy grade [14]: 5 (weed kill ratio 90% or more, (practically complete withering))
- d (soybean) effect on crop grade [15]: 0 (weed kill ratio 5% or less (practically no effect))
- F (barnyard grass) weedkilling efficacy grade [16]: 5 (weed kill ratio 90% or more, (practically complete withering))
- a (transplanted rice) effect on crop grade [17]: 4 (weed kill ratio 70% or more, less than 90%)
- O (catchweed) weedkilling efficacy grade [18]: 0 (weed kill ratio 5% or less (practically no effect))
- D (crabgrass) weedkilling efficacy grade [19]: 5 (weed kill ratio 90% or more, (practically complete withering))
- c (corn) effect on crop grade [20]: 0 (weed kill ratio 5% or less (practically no effect))
- f (beet) effect on crop grade [21]: 4 (weed kill ratio 70% or more, less than 90%)
- G (wild oat) weedkilling efficacy grade [22]: 3 (weed kill ratio 40% or more, less than 70%)
- I (Italian ryegrass) weedkilling efficacy grade [23]: 5 (weed kill ratio 90% or more, (practically complete withering))
- b (directly sown rice) effect on crop grade [24]: 4 (weed kill ratio 70% or more, less than 90%)
- D (crabgrass) weedkilling efficacy grade [25]: 5 (weed kill ratio 90% or more, (practically complete withering))
- d (soybean) effect on crop grade [26]: 4 (weed kill ratio 70% or more, less than 90%)
- I (Italian ryegrass) weedkilling efficacy grade [27]: 5 (weed kill ratio 90% or more, (practically complete withering))
- C (oval-leafed pondweed) weedkilling efficacy grade [28]: 5 (weed kill ratio 90% or more, (practically complete withering))
- e (wheat) effect on crop grade [29]: 0 (weed kill ratio 5% or less (practically no effect))
- e (wheat) effect on crop grade [30]: 0 (weed kill ratio 5% or less (practically no effect))
- P (birds-eye speedwell) weedkilling efficacy grade [31]: 4 (weed kill ratio 70% or more, less than 90%)
- b (directly sown rice) effect on crop grade [32]: 4 (weed kill ratio 70% or more, less than 90%)
- N (chickweed) weedkilling efficacy grade [33]: 4 (weed kill ratio 70% or more, less than 90%)
- N (chickweed) weedkilling efficacy grade [34]: 4 (weed kill ratio 70% or more, less than 90%)
- B (bulrush) weedkilling efficacy grade [35]: 5 (weed kill ratio 90% or more, (practically complete withering))
- L (redroot pigweed) weedkilling efficacy grade [36]: 4 (weed kill ratio 70% or more, less than 90%)
- F (barnyard grass) weedkilling efficacy grade [37]: 5 (weed kill ratio 90% or more, (practically complete withering))
- J (common wind-grass) weedkilling efficacy grade [38]: 5 (weed kill ratio 90% or more, (practically complete withering))
- O (catchweed) weedkilling efficacy grade [39]: 4 (weed kill ratio 70% or more, less than 90%)
- K (Indian mallow) weedkilling efficacy grade [40]: 3 (weed kill ratio 40% or more, less than 70%)
- G (wild oat) weedkilling efficacy grade [41]: 4 (weed kill ratio 70% or more, less than 90%)
- J (common wind-grass) weedkilling efficacy grade [42]: 5 (weed kill ratio 90% or more, (practically complete withering))
- B (bulrush) weedkilling efficacy grade [43]: 5 (weed kill ratio 90% or more, (practically complete withering))
- E (green foxtail) weedkilling efficacy grade [44]: 5 (weed kill ratio 90% or more, (practically complete withering))

From US9738634B2, “Heterocyclic amide compound and herbicide” (SYNGENTA PARTICIPATIONS AG, priority 2013, dated 2017)
